For the assay, the target named is Citron Rho-interacting kinase (Homo sapiens, UniProt O14578). In words: TR-FRET Based Assay.
From the text: Not found
On the technique in general: In TR-FRET formats the signal depends on donor and acceptor labels being close together.

A word on the IC50: it is the concentration that inhibits the measured activity by half.

SMILES strings stand for the structures.

Citron Rho-interacting kinase, sequence (O14578 whole entry): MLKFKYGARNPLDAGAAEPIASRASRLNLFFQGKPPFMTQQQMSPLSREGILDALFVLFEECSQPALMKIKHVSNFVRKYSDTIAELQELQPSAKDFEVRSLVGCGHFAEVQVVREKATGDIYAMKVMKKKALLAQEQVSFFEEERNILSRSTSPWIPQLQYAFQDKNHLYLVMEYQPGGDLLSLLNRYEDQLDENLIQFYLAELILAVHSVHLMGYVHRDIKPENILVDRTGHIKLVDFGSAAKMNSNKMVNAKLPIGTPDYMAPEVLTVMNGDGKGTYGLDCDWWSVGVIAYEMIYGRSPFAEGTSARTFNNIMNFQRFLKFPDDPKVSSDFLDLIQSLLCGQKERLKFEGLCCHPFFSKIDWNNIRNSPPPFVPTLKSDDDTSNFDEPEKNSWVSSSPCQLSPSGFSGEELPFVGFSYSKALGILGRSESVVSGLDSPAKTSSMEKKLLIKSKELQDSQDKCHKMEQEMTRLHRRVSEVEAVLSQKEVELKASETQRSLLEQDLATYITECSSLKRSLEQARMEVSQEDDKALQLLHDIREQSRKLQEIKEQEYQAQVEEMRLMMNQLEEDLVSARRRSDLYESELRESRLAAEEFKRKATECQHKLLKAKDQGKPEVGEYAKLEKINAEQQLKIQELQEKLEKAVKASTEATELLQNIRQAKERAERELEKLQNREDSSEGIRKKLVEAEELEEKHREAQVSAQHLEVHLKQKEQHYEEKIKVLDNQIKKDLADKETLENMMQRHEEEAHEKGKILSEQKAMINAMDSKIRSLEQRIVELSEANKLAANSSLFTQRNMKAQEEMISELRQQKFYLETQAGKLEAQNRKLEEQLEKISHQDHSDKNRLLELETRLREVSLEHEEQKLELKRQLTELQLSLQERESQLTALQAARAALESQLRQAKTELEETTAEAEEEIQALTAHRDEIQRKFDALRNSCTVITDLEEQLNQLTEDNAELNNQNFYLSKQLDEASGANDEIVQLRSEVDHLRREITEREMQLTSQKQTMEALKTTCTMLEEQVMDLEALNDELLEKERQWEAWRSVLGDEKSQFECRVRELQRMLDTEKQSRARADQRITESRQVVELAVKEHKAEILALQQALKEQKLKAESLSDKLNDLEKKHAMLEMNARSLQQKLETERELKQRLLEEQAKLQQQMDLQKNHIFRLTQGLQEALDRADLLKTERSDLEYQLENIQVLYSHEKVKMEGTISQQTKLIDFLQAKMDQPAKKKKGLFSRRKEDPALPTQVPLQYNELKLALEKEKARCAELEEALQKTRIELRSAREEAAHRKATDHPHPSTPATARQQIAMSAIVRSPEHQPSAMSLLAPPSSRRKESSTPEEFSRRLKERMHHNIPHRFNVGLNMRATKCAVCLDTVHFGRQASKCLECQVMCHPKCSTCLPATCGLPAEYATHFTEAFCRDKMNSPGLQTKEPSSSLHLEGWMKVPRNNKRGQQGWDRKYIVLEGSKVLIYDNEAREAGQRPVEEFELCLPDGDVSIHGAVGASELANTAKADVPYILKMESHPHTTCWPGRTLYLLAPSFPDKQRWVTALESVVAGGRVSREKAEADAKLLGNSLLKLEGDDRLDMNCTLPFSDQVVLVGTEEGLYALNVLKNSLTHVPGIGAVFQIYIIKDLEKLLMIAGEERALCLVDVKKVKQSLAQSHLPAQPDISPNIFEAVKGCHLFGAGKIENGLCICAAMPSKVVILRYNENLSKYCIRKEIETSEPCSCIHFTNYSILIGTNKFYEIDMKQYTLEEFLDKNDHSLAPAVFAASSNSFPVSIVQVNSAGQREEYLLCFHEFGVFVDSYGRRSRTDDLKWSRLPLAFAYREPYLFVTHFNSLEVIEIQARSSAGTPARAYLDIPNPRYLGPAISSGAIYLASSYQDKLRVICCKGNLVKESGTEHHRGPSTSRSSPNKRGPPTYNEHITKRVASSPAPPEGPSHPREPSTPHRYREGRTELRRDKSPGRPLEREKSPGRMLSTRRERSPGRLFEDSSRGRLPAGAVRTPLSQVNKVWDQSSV

In turn, `NC(CC1CCOCC1)C(=O)Nc1ccc(-c2ccnc3[nH]ccc23)cc1` (stereo unspecified) [US20250243196, Compound F-120] showed an IC50 of 153 nM. In turn, `CNC(Cc1ccccc1)C(=O)Nc1ccc(-c2ccnc3[nH]ccc23)cc1` (stereo unspecified) [US20250243196, Compound F-121] showed an IC50 of 3000 nM. For `CN(C)C(Cc1ccccc1)C(=O)Nc1ccc(-c2ccnc3[nH]ccc23)cc1` (stereo unspecified) [US20250243196, Compound F-122], the midpoint of inhibition, the IC50, lay at 1500 nM. The figure for `NC(Cc1ccc(Cl)cc1)C(=O)Nc1ccc(-c2ccnc3[nH]ccc23)cc1` (stereo unspecified) [US20250243196, Compound F-123] is 1290 nM. Take `NC(Cc1cccc(Cl)c1)C(=O)Nc1ccc(-c2ccnc3[nH]ccc23)cc1` (stereo unspecified) [US20250243196, Compound F-124]: half-maximal inhibition (IC50) was put at 536 nM. The molecule `NC(Cc1ccccc1Cl)C(=O)Nc1ccc(-c2ccnc3[nH]ccc23)cc1` (stereo unspecified) [US20250243196, Compound F-125] yielded an IC50 of 1770 nM.

The values are drawn from BindingDB's records for patent US20250243196 (The Cleveland Clinic Foundation, 2025).
